“And” between values parts separate entries of the source, which are not always exact repeats. Equal values may be shown once. Numbers after ± are expanded uncertainties.
Tests used:
[1] = xn = mol fraction of the nth substance listed; conditions: Wilhelmy plate method, x2 = 0
[2] = refractive index (Na D-line) (dimensionless); xn = mol fraction of the nth substance listed; conditions: 100.5 kPa, Liquid, Standard Abbe refractometry, x2 = 0
[3] = refractive index (Na D-line) (dimensionless); conditions: 101.33 kPa, Liquid, Standard Abbe refractometry
[4] = for surface tension liquid-gas: Wilhelmy plate method; for mass density: 298.15 K, 101.33 kPa, Liquid

SMILES | surface tension liquid-gas ([1]; 288.15 K) [mN/m] | surface tension liquid-gas ([1]; 298.18 K) [mN/m] | surface tension liquid-gas ([1]; 308.15 K) [mN/m] | surface tension liquid-gas ([1]; 318.15 K) [mN/m] | refractive index ([2]; 288.15 K) | refractive index ([2]; 298.18 K) | refractive index ([2]; 308.15 K) | refractive index ([2]; 318.15 K) | refractive index ([3]; 288.15 K) | refractive index ([3]; 298.18 K) | refractive index ([3]; 308.15 K) | refractive index ([3]; 318.15 K) | surface tension liquid-gas ([4]; 288.15 K) [mN/m] | mass density [4] [kg/m3] | surface tension liquid-gas ([4]; 298.18 K) [mN/m] | surface tension liquid-gas ([4]; 308.15 K) [mN/m] | surface tension liquid-gas ([4]; 318.15 K) [mN/m]
CCO [ethanol] + CCC(=O)OCc1ccccc1 | 23 ± 0.4 | 22.3 ± 0.4 | 21.5 ± 0.4 | 20.6 ± 0.4 | 1.36333 ± 0.00031 | 1.35941 ± 0.00031 | 1.35531 ± 0.00031 | 1.35148 ± 0.00031 |  |  |  |  |  |  |  |  | 
CC(=O)OCc1ccccc1 [benzyl ethanoate] |  |  |  |  |  |  |  |  | 1.50439 ± 0.00032 | 1.49982 ± 0.00032 | 1.49539 ± 0.00032 | 1.49064 ± 0.00032 | 37.7 ± 0.41 | 1050.75 ± 0.3 | 36.4 ± 0.41 | 35.3 ± 0.41 | 34.1 ± 0.41
CCOC(=O)CC(C)C [ethyl 3-methylbutanoate] |  |  |  |  |  |  |  |  | 1.3988 ± 0.00037 | 1.39401 ± 0.00037 | 1.38931 ± 0.00037 | 1.38458 ± 0.00037 | 24.4 ± 0.42 | 859.78 ± 0.82 | 23.5 ± 0.42 | 22.45 ± 0.42 | 21.6 ± 0.41
CCO [ethanol] + CCOC(=O)c1ccccc1O | 23 ± 0.4 | 22.3 ± 0.4 | 21.5 ± 0.4 | 20.6 ± 0.4 | 1.36333 ± 0.00031 | 1.35941 ± 0.00031 | 1.35531 ± 0.00031 | 1.35148 ± 0.00031 |  |  |  |  |  |  |  |  | 
CCO [ethanol] + CCOC(=O)CC(C)=O | 23 ± 0.4 | 22.3 ± 0.4 | 21.5 ± 0.4 | 20.6 ± 0.4 | 1.3633 ± 0.0003 | 1.3594 ± 0.0003 | 1.3553 ± 0.0003 | 1.3515 ± 0.0003 |  |  |  |  |  |  |  |  | 
CCC(=O)OCc1ccccc1 [benzyl propanoate] |  |  |  |  |  |  |  |  | 1.4995 ± 0.00034 | 1.49498 ± 0.00034 | 1.49074 ± 0.00034 | 1.48611 ± 0.00034 | 36 ± 0.41 | 1027.6 ± 0.4 | 34.8 ± 0.41 | 33.6 ± 0.41 | 32.4 ± 0.41
CCO [ethanol] + CCOC(=O)CC(C)C | 23 ± 0.4 | 22.3 ± 0.4 | 21.5 ± 0.4 | 20.6 ± 0.4 | 1.36333 ± 0.00031 | 1.35941 ± 0.00031 | 1.35531 ± 0.00031 | 1.35148 ± 0.00031 |  |  |  |  |  |  |  |  | 
COC(=O)c1ccccc1 [methyl benzoate] |  |  |  |  |  |  |  |  | 1.51915 ± 0.00035 | 1.51467 ± 0.00035 | 1.50993 ± 0.00035 | 1.50514 ± 0.00035 | 38.6 ± 0.43 | 1083.92 ± 0.68 | 37.2 ± 0.43 | 35.8 ± 0.43 | 34.8 ± 0.42
CCOC(=O)CC(C)=O [ethyl 3-oxobutanoate] |  |  |  |  |  |  |  |  | 1.4209 ± 0.0004 | 1.4166 ± 0.0004 | 1.4125 ± 0.0004 | 1.408 ± 0.0004 | 33.3 ± 0.42 | 1023.45 ± 0.52 | 32.3 ± 0.42 | 31.1 ± 0.42 | 30 ± 0.42
CCOC(=O)c1ccccc1O [ethyl 2-hydroxybenzoate] |  |  |  |  |  |  |  |  | 1.52481 ± 0.00032 | 1.52022 ± 0.00032 | 1.51573 ± 0.00032 | 1.51116 ± 0.00032 | 37.5 ± 0.41 | 1125 ± 0.4 | 36.3 ± 0.41 | 35.2 ± 0.41 | 34.4 ± 0.41
CCO [ethanol] + CC(=O)OCc1ccccc1 | 23 ± 0.4 | 22.3 ± 0.4 | 21.5 ± 0.4 | 20.6 ± 0.4 | 1.36333 ± 0.00031 | 1.35941 ± 0.00031 | 1.35531 ± 0.00031 | 1.35148 ± 0.00031 |  |  |  |  |  |  |  |  | 
CCO [ethanol] |  |  |  |  |  |  |  |  | 1.3633 ± 0.0003 and 1.36333 ± 0.00031 | 1.3594 ± 0.0003 and 1.35941 ± 0.00031 | 1.3553 ± 0.0003 and 1.35531 ± 0.00031 | 1.3515 ± 0.0003 and 1.35148 ± 0.00031 | 23 ± 0.4 | 785 ± 0.24 | 22.3 ± 0.4 | 21.5 ± 0.4 | 20.6 ± 0.4
CCO [ethanol] + COC(=O)c1ccccc1 | 23 ± 0.4 | 22.3 ± 0.4 | 21.5 ± 0.4 | 20.6 ± 0.4 | 1.36333 ± 0.00031 | 1.35941 ± 0.00031 | 1.35531 ± 0.00031 | 1.35148 ± 0.00031 |  |  |  |  |  |  |  |  | 
